Assay results as given in ChEMBL document CHEMBL1201862, “PubChem BioAssay data set” (2004).
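Step 1: Grow cells in 96-well plates. Step 2: Expose to compound for 48 hours at 5 concentrations. Step 3: Interpolate endpoints linearly; if unreached, use highest concentration. The concentration for 50% growth inhibition is given as GI50.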 Active and inactive are the calls of the source. Cut-off read from the data, not from the text of the source: active = GI50 up to about 1.1 µM and inactive = higher.

Experiments:
Assay in all cases: NCI anticancer screen, dose series, 48 h
[1] = tested on: A549
[2] = tested on: BT-549
[3] = tested on: EKVX
[4] = tested on: HOP-92
[5] = tested on: K562
[6] = tested on: LOX IMVI
[7] = tested on: M14
[8] = tested on: Malme-3M
[9] = tested on: NCI-H460
[10] = tested on: OVCAR-4
[11] = tested on: OVCAR-8
[12] = tested on: RPMI-8226
[13] = tested on: SF-295
[14] = tested on: SNB-75
[15] = tested on: SR
[16] = tested on: TK-10
[17] = tested on: UACC-257
[18] = tested on: UACC-62
[19] = tested on: UO-31
[20] = tested on: A498

Compound | GI50 [1] | GI50 [2] | GI50 [3] | GI50 [4] | GI50 [5] | GI50 [6] | GI50 [7] | GI50 [8] | GI50 [9] | GI50 [10] | GI50 [11] | GI50 [12] | GI50 [13] | GI50 [14] | GI50 [15] | GI50 [16] | GI50 [17] | GI50 [18] | GI50 [19] | GI50 [20]
COc1cn2c(cc1=O)COc1ccc(-c3ccccc3)cc1-2 | 39.6 µM (inactive) | 24.7 µM (inactive) | 36 µM (inactive) | 46.9 µM (inactive) | 89.3 µM (inactive) | 36.9 µM (inactive) | 45.4 µM (inactive) | 42.6 µM (inactive) | 37.6 µM (inactive) | > 85.1 µM (inactive) | > 76.4 µM (inactive) | 42.9 µM (inactive) | > 78.2 µM (inactive) | 35.8 µM (inactive) | 15.2 µM (inactive) | 20 µM (inactive) | 41 µM (inactive) | 44 µM (inactive) | 28.4 µM (inactive) | –
O=C1/C(=C/c2ccc(Cl)cc2)CCCc2ccccc21 | 21.3 µM (inactive) | 20.3 µM (inactive) | 14.8 µM (inactive) | 21.5 µM (inactive) | 3.24 µM (inactive) | 17.3 µM (inactive) | 15.6 µM (inactive) | 13.6 µM (inactive) | 17.7 µM (inactive) | 14.9 µM (inactive) | 17.2 µM (inactive) | 12.8 µM (inactive) | 16.9 µM (inactive) | 30.3 µM (inactive) | 13.6 µM (inactive) | 21.6 µM (inactive) | 28.8 µM (inactive) | 14.5 µM (inactive) | 18.3 µM (inactive) | –
O=C1C(Cl)=C(NCCF)C(=O)c2ncccc21 | 1.89 µM (inactive) | 1.63 µM (inactive) | 1.68 µM (inactive) | – | 0.321 µM (active) | 0.724 µM (active) | 1.61 µM (inactive) | 1.57 µM (inactive) | 1.65 µM (inactive) | – | 2.03 µM (inactive) | 7.08 µM (inactive) | 1.75 µM (inactive) | 1.29 µM (inactive) | 9.38 µM (inactive) | 2.13 µM (inactive) | 1.62 µM (inactive) | 0.977 µM (active) | 1.32 µM (inactive) | 4.12 µM (inactive)
NC(=O)c1ccc(/N=N/O)nc1 | > 100 µM (inactive) | > 100 µM (inactive) | > 100 µM (inactive) | – | > 100 µM (inactive) | – | > 100 µM (inactive) | 0.0755 µM (active) | > 100 µM (inactive) | > 100 µM (inactive) | > 100 µM (inactive) | – | > 100 µM (inactive) | > 100 µM (inactive) | > 100 µM (inactive) | > 100 µM (inactive) | > 100 µM (inactive) | > 100 µM (inactive) | > 100 µM (inactive) | > 100 µM (inactive)
Nc1ccn([C@@H]2C=C(CO)[C@@H](O)[C@H]2O)c(=O)n1 | 0.0592 µM (active) | 2.06 µM (inactive) | 0.562 µM (active) | 0.224 µM (active) | 0.0681 µM (active) | 0.0667 µM (active) | 0.186 µM (active) | 1.86 µM (inactive) | 0.0593 µM (active) | 0.216 µM (active) | 0.0817 µM (active) | – | 0.155 µM (active) | 2.07 µM (inactive) | 0.00946 µM (active) | 1.05 µM (active) | – | 0.227 µM (active) | 0.105 µM (active) | 1.84 µM (inactive)
CCN(CC)C(=O)N1CN(c2ccccc2)C2(CCN(CCCSc3ccc(F)cc3)CC2)C1=O | 18.8 µM (inactive) | 13.5 µM (inactive) | 3.93 µM (inactive) | – | 8.32 µM (inactive) | 2.84 µM (inactive) | 3.56 µM (inactive) | 15.9 µM (inactive) | – | 6.75 µM (inactive) | 15.1 µM (inactive) | 5.81 µM (inactive) | 12.1 µM (inactive) | 20.6 µM (inactive) | 3.8 µM (inactive) | 10.3 µM (inactive) | 3.32 µM (inactive) | > 10 µM (inactive) | 7.19 µM (inactive) | –
COc1ccc(-c2csc(-n3c(-c4ccccc4)nc4c(Br)cc(Br)cc4c3=O)n2)cc1 | 25.5 µM (inactive) | 17.8 µM (inactive) | 4.52 µM (inactive) | 5.14 µM (inactive) | 20.8 µM (inactive) | 29.9 µM (inactive) | 29.4 µM (inactive) | 26 µM (inactive) | 34.2 µM (inactive) | 63.2 µM (inactive) | 26.7 µM (inactive) | 7.74 µM (inactive) | 25.2 µM (inactive) | 31.3 µM (inactive) | – | 51.5 µM (inactive) | 30.3 µM (inactive) | 28.5 µM (inactive) | 23.4 µM (inactive) | 15.5 µM (inactive)
COc1ccc(-c2oc3c(CC(=O)O)cccc3c(=O)c2OC)cc1 | > 100 µM (inactive) | > 100 µM (inactive) | > 100 µM (inactive) | – | > 100 µM (inactive) | – | > 100 µM (inactive) | > 100 µM (inactive) | – | – | > 100 µM (inactive) | – | > 100 µM (inactive) | – | > 100 µM (inactive) | > 100 µM (inactive) | > 100 µM (inactive) | > 100 µM (inactive) | 0.0809 µM (active) | > 100 µM (inactive)
N/C(CCSCCSCC/C(N)=N\O)=N\O | > 100 µM (inactive) | > 100 µM (inactive) | > 100 µM (inactive) | > 100 µM (inactive) | > 100 µM (inactive) | > 100 µM (inactive) | > 100 µM (inactive) | > 100 µM (inactive) | > 100 µM (inactive) | > 100 µM (inactive) | – | > 100 µM (inactive) | – | > 100 µM (inactive) | > 100 µM (inactive) | > 100 µM (inactive) | – | > 100 µM (inactive) | > 100 µM (inactive) | –
O=C1Nc2ccc(Br)cc2/C1=N/NC(=S)Nc1ccc([N+](=O)[O-])cc1 | – | 2.28 µM (inactive) | – | 9.77 µM (inactive) | 9.48 µM (inactive) | 8.81 µM (inactive) | – | 5.98 µM (inactive) | 5.47 µM (inactive) | 6.11 µM (inactive) | 6.37 µM (inactive) | – | 6.08 µM (inactive) | 16 µM (inactive) | 5.05 µM (inactive) | 14.5 µM (inactive) | 14.4 µM (inactive) | 5.5 µM (inactive) | – | 5.56 µM (inactive)
CS(=O)(=O)C[S+]([O-])C[S+]([O-])C[S+]([O-])CC(NC(=O)CCC(N)C(=O)O)C(=O)O (stereo not drawn) | > 100 µM (inactive) | > 100 µM (inactive) | > 100 µM (inactive) | > 100 µM (inactive) | > 100 µM (inactive) | > 100 µM (inactive) | > 100 µM (inactive) | – | > 100 µM (inactive) | > 100 µM (inactive) | > 100 µM (inactive) | > 100 µM (inactive) | > 100 µM (inactive) | > 100 µM (inactive) | 16.3 µM (inactive) | > 100 µM (inactive) | > 100 µM (inactive) | > 100 µM (inactive) | > 100 µM (inactive) | –
COc1cccc(N2C(=O)CSC2c2cc(OC)c(OC)c(OC)c2)c1 (stereo not drawn) | 37.1 µM (inactive) | 22.1 µM (inactive) | 49.7 µM (inactive) | > 100 µM (inactive) | 25.9 µM (inactive) | 32.8 µM (inactive) | 27.7 µM (inactive) | – | 27.8 µM (inactive) | 47.3 µM (inactive) | 36 µM (inactive) | 29 µM (inactive) | 21.8 µM (inactive) | – | 5.75 µM (inactive) | > 100 µM (inactive) | 20.9 µM (inactive) | 34.2 µM (inactive) | 36.8 µM (inactive) | > 100 µM (inactive)
